Reference: PMC2359919, “Molecular targeting of retinoic acid metabolism in neuroblastoma: the role of the CYP26 inhibitor R116010 in vitro and in vivo” (British Journal of Cancer, 2007)

Columns and labels:
[1] = Pharmacokinetic analysis of RA in an SH-SY5Y xenograft model (retinoid concentrations in plasma, liver, tumour by LC/MS); format: in vivo, CD-1 nude mice; details: for Plasma % of total retinoids at all time points: 0.5, 2 and 6 h; for % Total retinoids, tumour, 0.5 h / Tumour concentration, 0.5 h / % Total retinoids, tumour, 2 h / Tumour concentration, 2 h / % Total retinoids, tumour, 6 h / Tumour concentration, 6 h: SH-SY5Y tumour; for % Total retinoids, tumour, 0.5 h / Tumour concentration, 0.5 h / % Total retinoids, tumour, 2 h / Tumour concentration, 2 h / % Total retinoids, tumour, 6 h / Tumour concentration, 6 h / % Total retinoids, liver, 0.5 h / Liver concentration, 0.5 h / % Total retinoids, liver, 2 h / Liver concentration, 2 h / % Total retinoids, liver, 6 h / Liver concentration, 6 h / % Total retinoids, plasma, 0.5 h / Plasma concentration, 0.5 h / % Total retinoids, plasma, 2 h / Plasma concentration, 2 h / % Total retinoids, plasma, 6 h / Plasma concentration, 6 h: label = retinoid measured
Protocol: (§1) All in vivo experiments were approved by the relevant institutional animal welfare committees, and performed according to national law. Female athymic nude mice (CD-1 nu/nu, Charles River) used for antitumour studies were maintained and handled in isolators, under specific pathogen-free conditions, at 24°C with a 12 h light, 12 h dark cycle. Tumours were generated by implantation of SH-SY5Y cells subcutaneously (s.c.) into one flank of CD-1 nude mice (1 × 10^7 cells per animal).
(§2) Treatments began when the tumours were between 7 and 10 mm in length and breadth. Retinoids and R116010 were initially dissolved in DMSO before 10- or 20-fold dilutions in PBS, respectively. For pharmacokinetic studies, the animals were dosed with ATRA or 13cisRA (each 100 mg kg^−1) orally for 0.5, 2 and 6 h. For metabolism studies, animals were treated with R116010 orally at doses of 1.25 or 2.5 mg kg^−1 either immediately before the retinoid being studied, or up to three times (over 1–2 days) before dosing with the retinoid. At termination of experiments, animals were bled under terminal anaesthesia then killed by cervical dislocation. Plasma was immediately removed from the blood by centrifugation at 1000 g for 5 min and snap-frozen in liquid nitrogen in amber Eppendorfs. Tumour and liver samples were removed and snap-frozen, wrapped in foil, in liquid nitrogen.
(§3) Cell pellets obtained from retinoid incubations were re-suspended in 2 ml cell culture medium and disrupted by passing the samples several times through a syringe and hypodermic needle (25G × 1 inches, 0.5 mm × 25 mm; Terumo, Somerset, NJ, USA). Tumour and liver tissues were re-suspended in PBS and homogenised (T25 homogeniser, IKA Laboratories, Staufen, Germany). Retinoids were extracted as described previously ([Veal et al, 2002]; [Armstrong et al, 2005b]). Samples were reconstituted in 200 μl mobile phase A (n-hexane:dichloromethane:propan-2-ol, 400 : 1 : 0.27) and analysed by normal-phase HPLC as described previously ([Veal et al, 2002]). For LC/MS analysis, samples were reconstituted in 200 μl mobile phase A (50% acetonitrile, 50% (0.2%) acetic acid, v v^−1).
(§4) Resolution of retinoids was performed with a Luna C18(2) column (3 μm, 50 mm × 2 mm) using a Perkin Elmer LC (Beaconsfield, UK) system, consisting of a vacuum degasser, two series 200 pumps, a thermostatically controlled series 200 autosampler and a Waters 2487 UV absorbance detector. Retinoic isomers and metabolites were separated by gradient reversed-phase chromatography. An injection volume of 20 μl with a flow rate of 0.2 ml min^−1 was used with mobile phase A (50% acetonitrile, 50% (0.2%) acetic acid, v v^−1) and mobile phase B (acetonitrile, 0.1% acetic acid, v v^−1). Linear gradients were employed between the specified times as follows: 0, 100% A; 5 min, 100% A; 15 min, 100% B; 20 min, 100% B; 23 min, 100% A; 35 min, 100% A. An Applied Biosystems (Warrington, UK) API-2000 LC/MS/MS triple Q (quadrupole) mass spectrometer with electrospray ionisation source, controlled by Analyst software, was operated in single quadrupole negative mode for the detection of compounds.

RA metabolism = experiment: Effect of R116010 on retinoid concentrations (plasma, liver, tumour) in an SH-SY5Y xenograft model, LC/MS; format: in vivo, CD-1 nude mice; details: ATRA-treated mice (100 mg kg^−1) without or with R116010; 6 h
Protocol: as §1, §2, §3, §4

CYP26 = test system: CYP26; parameters: method as in Njar et al, 2006; details: ref Njar et al, 2006; cited from earlier work
[2] = after 13cisRA 100 mg kg^−1 oral

% Total retinoids, tumour, 0.5 h [1, 2] | Tumour concentration, 0.5 h [1, 2] | % Total retinoids, tumour, 2 h [1, 2] | Tumour concentration, 2 h [1, 2] | % Total retinoids, tumour, 6 h [1, 2] | Tumour concentration, 6 h [1, 2] | % Total retinoids, liver, 0.5 h [1, 2] | Liver concentration, 0.5 h [1, 2] | % Total retinoids, liver, 2 h [1, 2] | Liver concentration, 2 h [1, 2] | % Total retinoids, liver, 6 h [1, 2] | Liver concentration, 6 h [1, 2] | % Total retinoids, plasma, 0.5 h [1, 2] | Plasma concentration, 0.5 h [1, 2] | % Total retinoids, plasma, 2 h [1, 2] | Plasma concentration, 2 h [1, 2] | % Total retinoids, plasma, 6 h [1, 2] | Plasma concentration, 6 h [1, 2] | % Total retinoids, tumour, 0.5 h ([1]; after ATRA 100 mg kg^−1 oral) | Tumour concentration, 0.5 h ([1]; after ATRA 100 mg kg^−1 oral) | Structure (SMILES) | also measured
<1% | 0.02 ± 0.0 µg/g | 3% | 0.09 ± 0.04 µg/g | 16% | 0.09 ± 0.02 µg/g | 5% | 0.26 ± 0.10 µg/g | 8% | 0.30 ± 0.09 µg/g | 12% | 0.67 ± 0.25 µg/g | 0% | 0 nM | <1% | 130 ± 40 nM | 0% | 0 nM | 8% | 0.21 ± 0.09 µg/g | CC1=C(/C=C/C(C)=C/C=C/C(C)=C/C(=O)O)C(C)(C)CCC1=O [AT-4-oxoRA, all-trans-4-oxo-RA] | Plasma % of total retinoids at all time points ([1]; after 13cisRA 100 mg kg^−1): < 10%; % Total retinoids, tumour, 2 h ([1]; after ATRA 100 mg kg^−1 oral): 2%; Tumour concentration, 2 h ([1]; after ATRA 100 mg kg^−1 oral): 0.24 ± 0.06 µg/g; % Total retinoids, tumour, 6 h ([1]; after ATRA 100 mg kg^−1 oral): 17%; Tumour concentration, 6 h ([1]; after ATRA 100 mg kg^−1 oral): 0.79 ± 0.38 µg/g; % Total retinoids, liver, 0.5 h ([1]; after ATRA 100 mg kg^−1 oral): 11%; Liver concentration, 0.5 h ([1]; after ATRA 100 mg kg^−1 oral): 0.44 ± 0.12 µg/g; % Total retinoids, liver, 2 h ([1]; after ATRA 100 mg kg^−1 oral): 13%; Liver concentration, 2 h ([1]; after ATRA 100 mg kg^−1 oral): 1.07 ± 0.05 µg/g; % Total retinoids, liver, 6 h ([1]; after ATRA 100 mg kg^−1 oral): 45%; Liver concentration, 6 h ([1]; after ATRA 100 mg kg^−1 oral): 2.39 ± 0.72 µg/g; Liver concentration, 6 h ([1]; after ATRA 100 mg kg^−1 oral, listed as AT-4-oxo-RA): 2.39 µg/g; % Total retinoids, plasma, 0.5 h ([1]; after ATRA 100 mg kg^−1 oral): 4%; Plasma concentration, 0.5 h ([1]; after ATRA 100 mg kg^−1 oral): 600 ± 400 nM; % Total retinoids, plasma, 2 h ([1]; after ATRA 100 mg kg^−1 oral): 6%; Plasma concentration, 2 h ([1]; after ATRA 100 mg kg^−1 oral): 1700 ± 300 nM; % Total retinoids, plasma, 6 h ([1]; after ATRA 100 mg kg^−1 oral): 22%; Plasma concentration, 6 h ([1]; after ATRA 100 mg kg^−1 oral): 4000 ± 2400 nM
3% | 0.06 ± 0.02 µg/g | 2% | 0.04 ± 0.0 µg/g | 19% | 0.11 ± 0.05 µg/g | 18% | 0.89 ± 0.22 µg/g | 33% | 1.33 ± 0.08 µg/g | 69% | 3.79 ± 0.99 µg/g | 2% | 270 ± 110 nM | 3% | 630 ± 100 nM | 20% | 1220 ± 240 nM | 0% | 0 µg/g | CC1=C(/C=C/C(C)=C/C=C/C(C)=C\C(=O)O)C(C)(C)CCC1=O [13cis-4-oxoRA, 13-cis-4-oxo-RA] | Liver concentration, 6 h ([1]; after 13cisRA 100 mg kg^−1 oral, listed as 13cis-4-oxo-RA): 3.79 µg/g; Plasma % of total retinoids at all time points ([1]; after ATRA 100 mg kg^−1): < 10%; % Total retinoids, tumour, 2 h ([1]; after ATRA 100 mg kg^−1 oral): 0%; Tumour concentration, 2 h ([1]; after ATRA 100 mg kg^−1 oral): 0 µg/g; % Total retinoids, tumour, 6 h ([1]; after ATRA 100 mg kg^−1 oral): 0%; Tumour concentration, 6 h ([1]; after ATRA 100 mg kg^−1 oral): 0 µg/g; % Total retinoids, liver, 0.5 h ([1]; after ATRA 100 mg kg^−1 oral): 1%; Liver concentration, 0.5 h ([1]; after ATRA 100 mg kg^−1 oral): 0.06 ± 0.03 µg/g; % Total retinoids, liver, 2 h ([1]; after ATRA 100 mg kg^−1 oral): 1%; Liver concentration, 2 h ([1]; after ATRA 100 mg kg^−1 oral): 0.09 ± 0.02 µg/g; % Total retinoids, liver, 6 h ([1]; after ATRA 100 mg kg^−1 oral): 4%; Liver concentration, 6 h ([1]; after ATRA 100 mg kg^−1 oral): 0.22 ± 0.09 µg/g; % Total retinoids, plasma, 0.5 h ([1]; after ATRA 100 mg kg^−1 oral): <1%; Plasma concentration, 0.5 h ([1]; after ATRA 100 mg kg^−1 oral): 30 ± 10 nM; % Total retinoids, plasma, 2 h ([1]; after ATRA 100 mg kg^−1 oral): <1%; Plasma concentration, 2 h ([1]; after ATRA 100 mg kg^−1 oral): 20 ± 10 nM; % Total retinoids, plasma, 6 h ([1]; after ATRA 100 mg kg^−1 oral): <1%; Plasma concentration, 6 h ([1]; after ATRA 100 mg kg^−1 oral): 50 ± 30 nM; Plasma 13cis-4-oxo-RA (RA metabolism): not detectable
– | – | – | – | – | – | – | – | – | – | – | – | – | – | – | – | – | – | – | – | Clc1cccc(C(c2ccc3[nH]cnc3c2)n2ccnc2)c1 (stereo not drawn) [liarozole] | Ability to inhibit CYP26 (CYP26): only moderate ability to inhibit CYP26
